Patent publication US20080171783A1, “COMPOSITIONS AND METHODS FOR TREATING HYPERPROLIFERATIVE DISEASE” (Migenix Inc., priority 2006, published 2008)

Experiments:
[1] = test system: UO-31; test: NCI In Vitro Cell Line Screening (SRB); assay type: cell-based, human; settings: UO-31, Renal Cancer, 48 h; for GI50 / CC50: Homo sapiens; for CC50: read-out: LC50 (the source's name)
[2] = test system: SR; test: NCI In Vitro Cell Line Screening (SRB); assay type: cell-based; settings: Leukemia, 48 h
[3] = test system: 5 Leukemia and 5 Colon Cancer Cell Lines; test: Cell viability by XTT, cell line panel; assay type: cell-based; settings: for Range (Percentage of Control over the same 10 cell lines): 10 μM, lowest to highest of the ten cell lines; for viability at 10 µM: average of the ten Percentage of Control values, read-out: ARF (Average Response Factor, Average Percentage of Control)
In short: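 Leukemia and colon cancer lines in exponential growth were exposed to compounds for four days at 37 °C/5% CO2, with colon lines allowed overnight adherence beforehand. Viability read by XTT/PMS reduction (4 h) at 450/650 nm; percent of control at 10 μM averaged over ten lines as ARF.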

[4] = test system: THP-1; test: Cell viability by XTT
Protocol: (§1) Compounds were solubilized at […] in DMSO and were stored at −20° C. Test compounds were initially tested at a single concentration of 10 μM and a subset of test compounds were further tested in selected cell lines using a six concentration dose response curve.
(§2) Cell Preparation Cancer cell lines were passaged in T-75 flasks prior to use in the assay in cell culture medium recommended by the ATCC (American Type Culture Collection; Table 6). On the day preceding the assay, the cells were split 1:2 to assure they were in an exponential growth phase at the time of compound treatment. Total cell and viability quantification was performed using a hemocytometer and Trypan Blue dye exclusion. […] The cells were resuspended at the appropriate cell per mL (Table 6) in tissue culture medium and added to the microtitre plates in a volume of 100 μL. Colon cell lines were incubated overnight at 37° C./5% CO2 to allow for cell adherence to the plates.
(§3) Plate Format: Each plate contains cell control wells (cells only), drug calorimetric control wells (drug only) as well as experimental wells (drug plus cells). Samples were tested in triplicate at a concentration of 10 μM and five half-logarithmic dilutions.
(§4) Cell Viability by XTT: Following incubation at 37° C. in a 5% CO2 incubator for four days, the test plates were stained with the tetrazolium dye XTT (2,3-bis(2-methoxy-4-nitro-5-sulfophenyl)-5-[(phenylamino)carbonyl]-2H-tetrazolium hydroxide). XTT-tetrazolium was metabolized by the mitochondrial enzymes of metabolically active cells to a soluble formazan product. XTT solution was prepared daily as a stock of 1 mg/mL in RPMI1640. Phenazine methosulfate (PMS) solution was prepared at 0.15 mg/mL in phosphate buffered saline (PBS) and stored in the dark at −20° C. XTT/PMS stock was prepared immediately before use by adding 40 μL of PMS per mL of XTT solution. Fifty (50) microlitres of XTT/PMS was added to each well of the plate and the plate was reincubated for 4 hours at 37° C. Plates were sealed with adhesive plate sealers and shaken gently or inverted several times to mix the soluble formazan product and the plate was read spectrophotometrically at 450/650 nm with a Molecular Devices Vmax plate reader. […] An Average Response Factor (ARF) was calculated for each compound by averaging the ten Percentage of Control values for the cell lines. […] Deviations below 100% control indicate activity. The concentration of each tested compound is 10 μM.

[5] = test system: Caco-2; test: Cell viability by XTT
Protocol: as §1, §2, §3, §4

[6] = test system: OVCAR-3; test: NCI In Vitro Cell Line Screening (SRB); settings: for GI50 / CC50: Homo sapiens, OVCAR-3, 48 h; for CC50: read-out: LC50; for TGI: OVCAR-3, Ovarian Cancer, 48 h
[7] = test system: NCI-H23; test: NCI In Vitro Cell Line Screening (SRB); assay type: cell-based; settings: NCI-H23, Non-Small Cell Lung Cancer, 48 h
[8] = test system: HT29; test: NCI In Vitro Cell Line Screening (SRB); assay type: cell-based; settings: HT29, Colon Cancer, 48 h; for GI50 / CC50: Homo sapiens, HT-29; for CC50: read-out: LC50 (the source's name)
[9] = test system: 786-0; test: NCI In Vitro Cell Line Screening (SRB); assay type: cell-based, human; settings: 786-0, Renal Cancer, 48 h; for GI50 / CC50: Homo sapiens; for CC50: read-out: LC50 (the source's name)
[10] = test system: CAKI-1; test: NCI In Vitro Cell Line Screening (SRB); assay type: cell-based, human; settings: CAKI-1, Renal Cancer, 48 h; for GI50 / CC50: Homo sapiens; for CC50: read-out: LC50 (the source's name)
[11] = test system: SK-MEL-28; test: NCI In Vitro Cell Line Screening (SRB); assay type: cell-based, human; settings: SK-MEL-28, Melanoma, 48 h; for GI50 / CC50: Homo sapiens; for CC50: read-out: LC50 (the source's name)
[12] = test system: EKVX; test: NCI In Vitro Cell Line Screening (SRB); assay type: cell-based, human; settings: Non-Small Cell Lung Cancer, 48 h; for GI50 / LC50: Homo sapiens
[13] = test system: HCT-15; test: NCI In Vitro Cell Line Screening (SRB); assay type: cell-based, human; settings: HCT-15, Colon Cancer, 48 h; for GI50 / CC50: Homo sapiens; for CC50: read-out: LC50 (the source's name)
[14] = test system: IGROV1; test: NCI In Vitro Cell Line Screening (SRB); assay type: cell-based; settings: IGROV1, Ovarian Cancer, 48 h; for CC50: read-out: LC50 (the source's name)
[15] = test system: SN12C; test: NCI In Vitro Cell Line Screening (SRB); assay type: cell-based, human; settings: Renal Cancer, 48 h; for GI50 / CC50: Homo sapiens; for CC50: read-out: LC50 (the source's name)
[16] = test system: RPMI-8226; test: NCI In Vitro Cell Line Screening (SRB); assay type: cell-based, human; settings: RPMI-8226, Leukemia, 48 h
[17] = test system: BT-549; test: NCI In Vitro Cell Line Screening (SRB); assay type: cell-based, human; settings: BT-549, Breast Cancer, 48 h; for GI50 / CC50: Homo sapiens; for CC50: read-out: LC50 (the source's name)
[18] = test system: MDA-MB-468; test: NCI In Vitro Cell Line Screening (SRB); settings: for TGI: MDA-MB-468, Breast Cancer, 48 h
[19] = test system: HCT-116; test: NCI In Vitro Cell Line Screening (SRB); assay type: cell-based, human; settings: HCT-116, Colon Cancer, 48 h
[20] = test system: MALME-3M; test: NCI In Vitro Cell Line Screening (SRB); assay type: cell-based, human; settings: Melanoma, 48 h; for GI50 / CC50: Homo sapiens; for CC50: read-out: LC50 (the source's name)
[21] = Homo sapiens, read-out: LC50 (the source's name)

Q: What does the source list for `CC(C)(C)c1ccc(NC(=O)[C@H](CCCCN)NC(=O)OCC2c3ccccc3-c3ccccc32)cc1` [Compound 105, (S)-[5-AMINO-1-(4-TERT-BUTYL-PHENYLCARBAMOYL)-PENTYL]-CARBAMIC ACID 9H-FLUOREN-9-YLMETHYL ESTER]?
A: GI50 [1]: 1.58 µM; CC50 [1]: 6.76 µM; TGI [1]: 3.27 µM; GI50 ([2]; Homo sapiens): 0.403 µM; CC50 [2, 21]: > 100 µM; Range (Percentage of Control over the same 10 cell lines) [3]: 0 to 110.8%; viability at 10 µM [3]: 53.4%; CC50 ([4]; Homo sapiens, THP-1, read-out: Activity (TC50)): 6.7 µM; Percentage of Cell Control ([4]; THP-1, single dose 10 μM, four days): 0%; Percentage of Cell Control ([5]; Caco-2, single dose 10 μM, four days): 0%; CC50 ([5]; Homo sapiens, Caco-2, read-out: Activity (TC50)): 8.6 µM; GI50 [6]: 16.1 µM; CC50 [6]: 56.3 µM; TGI [6]: 30.1 µM; LC50 (concentration giving 50% net cell kill) ([7]; Homo sapiens): 5.47 µM; TGI [7]: 1.95 µM; GI50 [8]: 0.733 µM; CC50 [8]: > 100 µM; TGI [9]: 2.66 µM; GI50 [9]: 1.33 µM; CC50 [9]: 5.3 µM; TGI [10]: 43.9 µM; GI50 [10]: 19.8 µM; CC50 [10]: 97.2 µM; GI50 [11]: 12.3 µM; CC50 [11]: 50.2 µM; TGI [11]: 24.8 µM; GI50 [12]: 21 µM; LC50 [12]: 90 µM; TGI [12]: 43.5 µM; TGI [13]: 24.4 µM; GI50 [13]: 11.1 µM; CC50 [13]: 53.9 µM; CC50 ([14]; Homo sapiens, IGROV-1): 6.97 µM; TGI [14]: 3.11 µM; GI50 [15]: 13.8 µM; CC50 [15]: 62.9 µM; TGI [15]: 29.5 µM; GI50 ([16]; Homo sapiens): 1.71 µM; TGI [16]: 3.78 µM; TGI [17]: 50.6 µM; GI50 [17]: 25.3 µM; CC50 [17]: > 100 µM; GI50 ([18]; Homo sapiens, MDA-MB-468, 48 h): 1.46 µM; TGI [18]: 3.27 µM; TGI [19]: 3.35 µM; GI50 ([19]; Homo sapiens): 1.53 µM; LC50 (concentration killing 50% of cells) ([19]; Homo sapiens): 7.3 µM; GI50 [20]: 15.6 µM; CC50 [20]: 89.5 µM; TGI [20]: 37.4 µM

Q: What does the source list for `Cc1ccc(NC(=O)[C@@H](CCCCN)NC(=O)Nc2ccc3c(c2)Cc2ccccc2-3)cc1` [Compound 173, (R)-6-AMINO-2-[3-(9H-FLUOREN-2-YL)-UREIDO]-HEXANOIC ACID P-TOLYLAMIDE]?
A: GI50 [1]: > 100 µM; CC50 [1]: > 100 µM; TGI [1]: >100 µM; GI50 ([2]; Homo sapiens): 1.3 µM; TGI [2]: 3.41 µM; Range (Percentage of Control over the same 10 cell lines) [3]: 4.3 to 108.6%; viability at 10 µM [3]: 76.8%; GI50 [6]: 1.31 µM; CC50 [6]: 31.6 µM; TGI [6]: 9.94 µM; GI50 ([7]; Homo sapiens): 3.45 µM; LC50 (concentration giving 50% net cell kill) ([7]; Homo sapiens): > 100 µM; TGI [7]: 19.6 µM; TGI [8]: >100 µM; GI50 [8]: 3.64 µM; CC50 [8]: > 100 µM; TGI [9]: 11.1 µM; GI50 [9]: 3.42 µM; CC50 [9]: 91.1 µM; TGI [10]: 34.0 µM; GI50 [10]: 0.135 µM; CC50 [10]: > 100 µM; GI50 [11]: 1.43 µM; CC50 [11]: 5.43 µM; TGI [11]: 2.79 µM; GI50 [12]: 1.19 µM; LC50 [12]: > 100 µM; TGI [12]: 46.2 µM; TGI [13]: 87.8 µM; GI50 [13]: 23.9 µM; CC50 [13]: > 100 µM; GI50 ([14]; Homo sapiens, IGROV-1): 3.56 µM; CC50 ([14]; Homo sapiens, IGROV-1): 81 µM; TGI [14]: 17.9 µM; GI50 [15]: 1.17 µM; CC50 [15]: 5 µM; TGI [15]: 2.41 µM; GI50 ([16]; Homo sapiens): 1.59 µM; CC50 [16, 21]: > 100 µM; TGI [16]: 4.87 µM; TGI [17]: 26.9 µM; GI50 [17]: 11.7 µM; CC50 [17]: 61.6 µM; GI50 ([18]; Homo sapiens, MDA-MB-468, 48 h): 1.66 µM; CC50 ([18]; Homo sapiens, MDA-MB-468, 48 h, read-out: LC50): 8.31 µM; TGI [18]: 3.72 µM; TGI [19]: 4.40 µM; GI50 ([19]; Homo sapiens): 2.16 µM; GI50 [20]: 1.55 µM; CC50 [20]: 8.23 µM; TGI [20]: 3.57 µM
